This is an account of results in patent US20220306728A1 (priority 2019, published 2022).

Holding throughout (assay): microbe, parasite or virus in culture
For one experiment, the system named is H3N2 and H1N1 strains. The class given is cell-based, influenza A virus.
For the next experiment, the system named is H1N1 virus. The class given is cell-based. The conditions noted are these: Influenza A virus, H1N1, MDCK.
Another experiment has as its system H3N2 virus. The class given is cell-based. The conditions noted are these: Influenza A virus, H3N2, MDCK.

Each structure is given as a SMILES string. pIC50: −log10 of the molar value. Read-outs that look alike come from different tables or passages of the source.

For `COC(=O)OCOc1c2n(ccc1=O)N([C@@H]1c3ccccc3SCc3c1ccc(F)c3F)[C@@H]1COCCN1C2=O` [baloxavir marboxil, reference compound], the pIC50 (in general, −log10 of the IC50, conventionally taken in molar units) with H3N2 and H1N1 strains (read-out: IC50) was 8.31 to 8.64. With `CCOC(=O)C1=C[C@@H](OC(CC)CC)[C@H](NC(C)=O)[C@@H](N)C1` [oseltamivir], the pIC50 in the experiment on H1N1 virus was 8.04; in the experiment with H3N2 virus, 8.15. The molecule `CC(=O)N[C@H]1[C@H]([C@H](O)[C@H](O)CO)OC(C(=O)O)=C[C@@H]1N=C(N)N` [zanamivir, reference compound] showed a pIC50 with H3N2 and H1N1 strains (Influenza A virus, MDCK) of 7.86 to 7.97.
